Broadly, the pIC50 is the negative decadic logarithm of the IC50, by convention in mol/L.

The values that follow come from patent US20240368192A1, “Nitrogen-Containing Heterocyclic Compound, and Preparation Method Therefor, Intermediate Thereof, and Application Thereof” (Shanghai Allist Pharmaceuticals Co., Ltd., priority 2021, published 2024).

Series [1] concerns the target Ba/F3 KRAS-G12V cells (Homo sapiens, UniProt P01116, G12V, cells depend on it). Nature of the series: Proliferation inhibitory activity on Ba/F3 KRAS-G12V stably transfected cell line (CellTiter-Glo, 72 hours). Type of series: cell-based, mouse. The settings on record: read-out: Ba/F3 KRAS-G12V IC50. The source says: (§1) Test Example 1: Proliferation Inhibitory Activity on Ba/F3 KRAS-G12D, Ba/F3 KRAS-G12V Stably Transfected Cell Lines and AGS Tumor Cell Lines Containing KRAS G12D Mutations
(§2) To determine the proliferation inhibitory activity of the compounds in vitro on mouse pro-B cells Ba/F3 (Ba/F3 KRAS-G12D and Ba/F3 KRAS-G12V cells stably expressing KRAS G12D/V mutant proteins) and gastric cancer AGS cells expressing KRAS G12D mutant protein.
(§3) Cell sources. Ba/F3 KRAS-G12D and Ba/F3 KRAS-G12V were purchased from Kyinno Biotech (Beijing) Co., Ltd, Cat. No.: KC-1259 and KC-1261, respectively; AGS was purchased from Shanghai Bioleaf Biotech Co., Ltd.
(§4) Cells in the logarithmic growth phase were seeded in a 96-well plate (8000, 8000, 4000 cells/well, 90 μL/well for Ba/F3 KRAS-G12D, Ba/F3 KRAS-G12V, and AGS cells respectively), incubated at 37° C. for 1 day with 5% CO2, and then a gradient dilution of the test compound was added thereto (compounds 1 to 28 and comparative compounds). The details were as follows, the compound stock solution (10 mM) previously dissolved in DMSO was diluted to 10 gradient concentrations at a fold ratio (4 fold) and diluted to 10 fold of the target concentration in another 96-well plate with culture medium, and then 10 μL/well of the compound solution was added to the 96-well plate seeded with cells to reach the target concentration (10000, 2500, 625, 156, 39, 10, 2.5, 0.6, 0.15, 0.04 nM). Each concentration was provided with 3 duplicate wells and a blank control. After continued incubation at 37° C. and 5% CO2 for 72 hours, 50 μL of CellTiter-Glo*2.0 reagent (luciferase ATP bioluminescence detection reagent, purchased from Promega, Cat. No.: G9243) was added to each well, shaken for 2 minutes, and incubated at room temperature for 8 minutes, and then fluorescence luminescence intensity was detected (light collection time was 100 ms). The inhibitory rate of compounds with various concentrations on cell proliferation was calculated. Cell proliferation inhibition rate (%)=[(luminous intensitycontrol group containing cell culture medium for 72 hour−luminous intensitycompound group for 72 hour)/(luminous intensitycontrol group containing cell culture medium for 72 hours−luminous intensitycontrol group without cell culture medium for 72 hour)]×100%. GraphPad Prism 8.3 software was used to analyze the data, and nonlinear S-curve regression was used to fit the data to obtain a dose-effect curve, from which the IC50 value was calculated.
(Cellular ATP, detected with luciferase, serves as a proxy for viable cell number.)

Series [2] has as its target Ba/F3 KRAS-G12D cells (Homo sapiens, UniProt P01116, G12D, cells depend on it). Briefly: Proliferation inhibitory activity on Ba/F3 KRAS-G12D stably transfected cell line (CellTiter-Glo, 72 hours). As to conditions: read-out: Ba/F3 KRAS-G12D IC50. The format is cell-based, mouse.
Excerpt: as §1, §2, §3, §4

Series [3] can be described thus: Body weight change of mice in HPAC xenograft model. Type of series: in vivo. The settings on record: 30 mg/kg intraperitoneally twice a day for 10 days, vs D0 weight, HPAC xenograft in BALB/c nude mice. The method, then:
Experimental scheme: BALB/c nude mice were subcutaneously inoculated with HPAC cells to establish a cell line xenograft tumor model. The test was divided into a 30 mg/kg group of compound 21, a 30 mg/kg group of comparative compound, and a vehicle group, with 5 mice in each group. The mice were administered intraperitoneally in an administration volume of 10 μL/g. The vehicle group was given an equal amount of vehicle (sulfobutyl-β-cyclodextrin sodium salt dissolved in 50 mM citric acid buffer, the mass-to-volume concentration of sulfobutyl-β-cyclodextrin sodium salt was 10%, and the pH value of the vehicle was 5.0), administered twice a day for 10 days. During the entire experiment, the body weight and tumor size of the mice were measured on days 4, 7, and 10 to observe whether toxic reactions occurred. Efficacy was evaluated based on relative tumor proliferation rate. Other compounds of the present disclosure (compounds 1 to 20 and 22 to 28) were tested with reference to compound 21. Formula for calculating weight change: weight change (%)=(weight/D0 weight−1)×100%.

Series [4] concerns HPAC cells. Nature of the series: In vivo efficacy in HPAC cell line xenograft tumor model. The settings on record: 30 mg/kg intraperitoneally twice a day for 10 days, day 10 vs day 0, HPAC xenograft in BALB/c nude mice. The method, then:
Test Example 2: In Vivo Efficacy of Test Compounds in HPAC Model
This experiment is used to evaluate the in vivo efficacy of compounds in the HPAC model.
Source of experimental animals: Beijing Vital River Laboratory Animal Technology Co., Ltd., certificate number: 20170011007990.
Animal modeling and random grouping: HPAC cells were cultured and expanded to 30 T175 cm^2 culture flasks. Cells were collected, resuspended in serum-free culture medium DMEM for counting, and added with matrix glue at a ratio of 1:1, and inoculated into the right anterior subcutaneous region of BALB/c Nude mice at 5×10^6 cells/0.1 mL. When the average tumor volume reached approximately 281 mm^3, mice were randomly divided into various experimental groups according to tumor size, with 5 mice per group. The day of grouping was defined as day 0, that is, DO.
Experimental scheme: BALB/c nude mice were subcutaneously inoculated with HPAC cells to establish a cell line xenograft tumor model. The test was divided into a 30 mg/kg group of compound 21, a 30 mg/kg group of comparative compound, and a vehicle group, with 5 mice in each group. […] During the entire experiment, the body weight and tumor size of the mice were measured on days 4, 7, and 10 to observe whether toxic reactions occurred. Efficacy was evaluated based on relative tumor proliferation rate. […]

For series [5], the system named is AGS cells. Briefly: Proliferation inhibitory activity on AGS tumor cell line containing KRAS G12D mutation (CellTiter-Glo, 72 hours). Type of series: cell-based. The settings on record: Homo sapiens.
Excerpt: as §1, §2, §3, §4

The structures appear in SMILES notation. pIC50: −log10 of the molar value.

Sequence of Ba/F3 KRAS-G12D cells (P01116 whole entry G12D): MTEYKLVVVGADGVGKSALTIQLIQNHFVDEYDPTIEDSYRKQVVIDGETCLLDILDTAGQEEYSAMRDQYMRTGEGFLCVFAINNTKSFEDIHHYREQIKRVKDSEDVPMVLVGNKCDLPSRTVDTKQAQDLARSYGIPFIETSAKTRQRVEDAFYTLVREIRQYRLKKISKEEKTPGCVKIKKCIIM
Sequence of Ba/F3 KRAS-G12V cells (P01116 whole entry G12V): as the sequence (P01116 whole entry G12D) above, with D12V counted along it

Take `C#Cc1c(F)ccc2cc(O)cc(-c3nc(Cl)c4c(N5C[C@H]6CC[C@@H](C5)N6)nc(OC[C@@]56CCCN5C[C@H](F)C6)nc4c3F)c12` [Compound 21, 4-(4-((1R,5S)-3,8-Diazabicyclo[3.2.1]octan-3-yl)-5-chloro-8-fluoro-2-(((2R,7aS)-2-fluorohexahydro-1H-pyrrolizin-7a-yl)methoxy)pyrido[4,3-d]pyrimidin-7-yl)-5-ethynyl-6-fluoronaphthalen-2-ol]: the GI50 in series [1] was 5000 to 10000 nM; in series [2] it was 1 nM. Moreover, in series [3], the “Weight change (%)” value is given as −7.27%. In series [4], the “T/C % (relative tumor proliferation rate)” value is reported as −64.96%. In addition, in series [5], the negative-log IC50 (pIC50) is 8.05.
